pIC50, pKi: −log10 of the molar value.
Key:
[1] = target: T1, Glucocorticoid receptor (Homo sapiens, UniProt P04150); conditions: hela s3; further: in other assays of this panel Not Active means under 50% inhibition at 10 µM
T1 sequence (P04150 whole entry): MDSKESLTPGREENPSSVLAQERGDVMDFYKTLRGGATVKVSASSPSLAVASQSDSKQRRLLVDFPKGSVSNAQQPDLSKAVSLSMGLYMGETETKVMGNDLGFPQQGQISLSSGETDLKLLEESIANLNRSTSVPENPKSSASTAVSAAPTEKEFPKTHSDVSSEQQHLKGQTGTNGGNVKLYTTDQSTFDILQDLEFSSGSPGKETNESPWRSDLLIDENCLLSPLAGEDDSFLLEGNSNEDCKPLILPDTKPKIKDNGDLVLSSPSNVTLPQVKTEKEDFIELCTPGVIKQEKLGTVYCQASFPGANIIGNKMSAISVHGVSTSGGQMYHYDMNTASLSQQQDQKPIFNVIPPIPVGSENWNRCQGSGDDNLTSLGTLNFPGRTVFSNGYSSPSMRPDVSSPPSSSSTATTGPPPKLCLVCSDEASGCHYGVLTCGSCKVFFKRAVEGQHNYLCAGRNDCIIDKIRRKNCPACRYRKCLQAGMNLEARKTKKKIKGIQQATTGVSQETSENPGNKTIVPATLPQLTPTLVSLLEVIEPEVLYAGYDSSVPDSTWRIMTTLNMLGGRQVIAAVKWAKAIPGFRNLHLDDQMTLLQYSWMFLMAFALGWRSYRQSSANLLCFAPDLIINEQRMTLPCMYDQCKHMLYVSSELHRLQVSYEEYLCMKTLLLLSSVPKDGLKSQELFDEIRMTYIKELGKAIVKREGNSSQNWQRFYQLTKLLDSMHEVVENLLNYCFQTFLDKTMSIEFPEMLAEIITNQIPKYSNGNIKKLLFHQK

[2] = target: T2, Amine oxidase [flavin-containing] A (Homo sapiens, UniProt P21397); assay: DRUGMATRIX: Monoamine Oxidase MAO-A enzyme inhibition (substrate: Kynuramine); parameters: species or system BTI-TN-5B1-4; conditions: bti-tn-5b1-4; Not Active = under 50% inhibition at 10 µM
T2 sequence (P21397 whole entry): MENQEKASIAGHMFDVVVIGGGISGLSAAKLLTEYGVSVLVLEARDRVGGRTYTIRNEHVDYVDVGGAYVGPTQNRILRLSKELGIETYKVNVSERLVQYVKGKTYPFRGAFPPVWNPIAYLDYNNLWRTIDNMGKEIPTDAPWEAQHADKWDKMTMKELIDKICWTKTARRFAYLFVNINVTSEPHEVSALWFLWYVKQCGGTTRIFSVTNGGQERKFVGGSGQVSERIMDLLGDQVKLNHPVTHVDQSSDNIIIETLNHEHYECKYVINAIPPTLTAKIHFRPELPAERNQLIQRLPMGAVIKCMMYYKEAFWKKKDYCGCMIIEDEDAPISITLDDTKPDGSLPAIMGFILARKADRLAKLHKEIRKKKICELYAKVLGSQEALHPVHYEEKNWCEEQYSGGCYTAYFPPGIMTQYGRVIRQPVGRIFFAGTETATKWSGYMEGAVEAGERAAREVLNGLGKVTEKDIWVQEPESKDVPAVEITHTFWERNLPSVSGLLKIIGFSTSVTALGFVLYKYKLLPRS

[3] = target: Tyrosine-protein kinase Lck (Homo sapiens, UniProt P06239); assay: DRUGMATRIX: Protein Tyrosine Kinase, LCK enzyme inhibition (substrate: Poly(Glu:Tyr)); assay type: cell-based, Insect cells; conditions: insect cells; Not Active = under 50% inhibition at 10 µM
[4] = target: T3, Angiotensin-converting enzyme (Oryctolagus cuniculus, UniProt P12822); assay type: tissue-based, Lung;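 further: enzymatic inhibition of angiotensin-converting enzyme measured with FAPGG as the substrate; in other assays of this panel Not Active means under 50% inhibition at 10 µM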
T3 sequence (P12822 whole entry): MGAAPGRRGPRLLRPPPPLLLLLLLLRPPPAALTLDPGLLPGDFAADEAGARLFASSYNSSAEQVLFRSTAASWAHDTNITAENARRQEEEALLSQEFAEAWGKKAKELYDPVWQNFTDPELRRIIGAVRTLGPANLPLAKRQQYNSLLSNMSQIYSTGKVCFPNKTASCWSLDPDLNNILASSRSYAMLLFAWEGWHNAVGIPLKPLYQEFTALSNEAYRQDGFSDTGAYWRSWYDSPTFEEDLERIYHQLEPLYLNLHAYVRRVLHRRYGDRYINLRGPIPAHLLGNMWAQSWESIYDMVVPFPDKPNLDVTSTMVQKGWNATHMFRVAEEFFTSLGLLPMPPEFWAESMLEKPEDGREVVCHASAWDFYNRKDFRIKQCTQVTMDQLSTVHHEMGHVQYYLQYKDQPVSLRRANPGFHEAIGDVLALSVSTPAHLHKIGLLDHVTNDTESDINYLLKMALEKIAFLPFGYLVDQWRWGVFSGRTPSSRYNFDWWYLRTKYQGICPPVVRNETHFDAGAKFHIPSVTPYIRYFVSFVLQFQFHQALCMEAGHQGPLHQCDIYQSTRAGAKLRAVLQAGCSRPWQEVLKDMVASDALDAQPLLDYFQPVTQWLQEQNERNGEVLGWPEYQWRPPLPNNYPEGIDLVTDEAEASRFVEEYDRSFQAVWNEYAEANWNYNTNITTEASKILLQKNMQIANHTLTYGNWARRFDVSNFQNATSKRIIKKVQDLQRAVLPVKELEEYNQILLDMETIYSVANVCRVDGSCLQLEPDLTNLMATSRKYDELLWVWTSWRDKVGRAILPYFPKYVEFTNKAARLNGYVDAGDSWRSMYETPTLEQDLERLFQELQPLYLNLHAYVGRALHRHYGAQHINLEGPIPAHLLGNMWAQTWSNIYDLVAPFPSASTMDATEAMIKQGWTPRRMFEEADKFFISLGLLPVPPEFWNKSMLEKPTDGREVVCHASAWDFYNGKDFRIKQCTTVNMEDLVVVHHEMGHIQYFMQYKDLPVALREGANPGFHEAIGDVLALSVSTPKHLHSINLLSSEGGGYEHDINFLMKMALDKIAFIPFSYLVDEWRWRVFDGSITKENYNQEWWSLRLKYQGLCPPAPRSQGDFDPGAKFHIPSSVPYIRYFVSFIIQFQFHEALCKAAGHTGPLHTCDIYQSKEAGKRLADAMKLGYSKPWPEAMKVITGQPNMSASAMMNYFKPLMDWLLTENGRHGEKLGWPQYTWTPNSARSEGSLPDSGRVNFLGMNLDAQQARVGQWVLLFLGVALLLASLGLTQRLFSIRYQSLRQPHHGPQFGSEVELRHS

[5] = target: Acetylcholinesterase (Homo sapiens, UniProt P22303); assay: DRUGMATRIX: Acetylcholinesterase enzyme inhibition (substrate: acetylthiocholine); assay type: cell-based, HEK293; conditions: Not Active = under 50% inhibition at 10 µM; for IC50: hek293
[6] = target: Melanocortin receptor 4 (Homo sapiens, UniProt P32245); assay type: cell membranes, Membrane; conditions: hek293; further: in other assays of this panel Not Active means under 50% inhibition at 10 µM
[7] = target: 5-hydroxytryptamine receptor 6 (Homo sapiens, UniProt P50406); assay type: cell membranes, HeLa, Membrane; conditions: for IC50: hela; on all read-outs here: in other assays of this panel Not Active means under 50% inhibition at 10 µM
[8] = DRUGMATRIX: Calcium Channel Type L, Benzothiazepine radioligand binding (ligand: [3H] Diltiazem); assay type: cell membranes, Rattus norvegicus, Wistar, Brain, Membrane; conditions: Not Active = under 50% inhibition at 10 µM; for pIC50: read-out: IC50; for pKi: read-out: Ki

5-hydroxytryptamine receptor 6, sequence (P50406 whole entry): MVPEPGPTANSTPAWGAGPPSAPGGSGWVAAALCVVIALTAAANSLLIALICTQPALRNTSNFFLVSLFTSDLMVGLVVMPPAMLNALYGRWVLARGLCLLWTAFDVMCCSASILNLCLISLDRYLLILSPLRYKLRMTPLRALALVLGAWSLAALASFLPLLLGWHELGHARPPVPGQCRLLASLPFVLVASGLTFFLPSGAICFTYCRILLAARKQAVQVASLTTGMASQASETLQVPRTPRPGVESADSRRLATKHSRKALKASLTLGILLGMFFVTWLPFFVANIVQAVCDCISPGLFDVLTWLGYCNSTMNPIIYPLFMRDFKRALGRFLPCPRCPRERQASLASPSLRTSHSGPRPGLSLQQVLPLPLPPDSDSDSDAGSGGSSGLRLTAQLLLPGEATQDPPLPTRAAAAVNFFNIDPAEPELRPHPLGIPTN
Acetylcholinesterase, sequence (P22303 whole entry): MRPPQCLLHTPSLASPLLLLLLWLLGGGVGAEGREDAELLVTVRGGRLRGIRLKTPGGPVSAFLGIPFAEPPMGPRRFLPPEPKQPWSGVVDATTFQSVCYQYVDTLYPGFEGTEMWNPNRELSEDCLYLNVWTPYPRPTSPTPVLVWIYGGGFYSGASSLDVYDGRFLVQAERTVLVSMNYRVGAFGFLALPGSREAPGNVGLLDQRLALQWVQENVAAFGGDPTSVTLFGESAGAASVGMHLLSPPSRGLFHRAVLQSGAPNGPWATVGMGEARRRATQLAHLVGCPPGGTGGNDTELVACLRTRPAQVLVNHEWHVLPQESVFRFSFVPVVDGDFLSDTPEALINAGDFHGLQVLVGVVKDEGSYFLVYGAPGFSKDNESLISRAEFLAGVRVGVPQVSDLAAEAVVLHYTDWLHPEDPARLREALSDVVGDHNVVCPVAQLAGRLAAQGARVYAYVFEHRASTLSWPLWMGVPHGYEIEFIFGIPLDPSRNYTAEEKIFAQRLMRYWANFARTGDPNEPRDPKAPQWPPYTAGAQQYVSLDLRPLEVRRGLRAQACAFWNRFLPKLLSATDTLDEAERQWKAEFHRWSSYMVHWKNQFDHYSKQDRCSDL
Tyrosine-protein kinase Lck, sequence (P06239 whole entry): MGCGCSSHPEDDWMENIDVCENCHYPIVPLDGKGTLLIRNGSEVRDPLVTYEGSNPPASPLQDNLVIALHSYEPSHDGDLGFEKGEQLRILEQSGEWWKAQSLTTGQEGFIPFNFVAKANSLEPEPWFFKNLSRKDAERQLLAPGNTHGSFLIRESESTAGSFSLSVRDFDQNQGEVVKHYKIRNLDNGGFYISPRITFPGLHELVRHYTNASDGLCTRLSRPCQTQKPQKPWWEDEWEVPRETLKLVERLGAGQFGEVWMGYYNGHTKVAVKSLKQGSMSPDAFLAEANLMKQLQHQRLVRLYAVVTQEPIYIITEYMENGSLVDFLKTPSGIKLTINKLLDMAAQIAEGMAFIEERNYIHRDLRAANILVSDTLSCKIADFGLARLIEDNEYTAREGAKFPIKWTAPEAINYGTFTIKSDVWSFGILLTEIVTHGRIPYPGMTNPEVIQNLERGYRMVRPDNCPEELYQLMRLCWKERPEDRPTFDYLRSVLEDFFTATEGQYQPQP
Melanocortin receptor 4, sequence (P32245 whole entry): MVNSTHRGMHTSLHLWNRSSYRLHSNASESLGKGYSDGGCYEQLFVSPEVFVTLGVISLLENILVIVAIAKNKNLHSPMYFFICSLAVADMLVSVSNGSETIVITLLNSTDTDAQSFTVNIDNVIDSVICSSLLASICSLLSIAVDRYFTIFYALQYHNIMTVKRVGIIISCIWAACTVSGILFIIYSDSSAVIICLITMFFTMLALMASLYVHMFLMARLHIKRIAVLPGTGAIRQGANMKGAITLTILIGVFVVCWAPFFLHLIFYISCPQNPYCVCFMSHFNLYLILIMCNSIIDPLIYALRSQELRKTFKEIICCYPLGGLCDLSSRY

## COCCOC(=O)C1=C(C)NC(C)=C(C(=O)OC(C)C)C1c1cccc([N+](=O)[O-])c1 (configuration not stated) [NIMODIPINE]
[1]
  IC50: Not Active
[2]
  IC50: Not Active
[3]
  IC50: Not Active
[4]
  IC50: Not Active
[5]
  IC50: Not Active
[6]
  IC50: Not Active
[7]
  IC50: Not Active
[8]
  pIC50: 8.68
  pKi: 8.73

## CC(=O)N1CCN(c2ccc(OCC3COC(Cn4ccnc4)(c4ccc(Cl)cc4Cl)O3)cc2)CC1 (configuration not stated) [KETOCONAZOLE]
[1]
  IC50: Not Active
[2]
  IC50: Not Active
[3]
  IC50: Not Active
[4]
  IC50: Not Active
[5]
  IC50: Not Active
[6]
  IC50: Not Active
[7]
  IC50: Not Active
[8]
  pIC50: 4.49
  pKi: 4.55

## COc1cc(NS(=O)(=O)c2ccc(N)cc2)nc(OC)n1 [SULFADIMETHOXINE]
[1]
  IC50: Not Active
[2]
  IC50: Not Active
[3]
  IC50: Not Active
[4]
  IC50: Not Active
[5]
  IC50: Not Active
[6]
  IC50: Not Active
[7]; read-out: IC50
  pIC50: 5.87
[7]; read-out: Ki
  pKi: 6.21
[8]
  IC50: Not Active
  Ki: Not Active

## C[C@]1(Cn2ccnn2)[C@H](C(=O)O)N2C(=O)C[C@H]2S1(=O)=O [TAZOBACTAM]
[1]
  IC50: Not Active
[2]
  IC50: Not Active
[3]
  IC50: Not Active
[4]
  IC50: Not Active
[5]
  IC50: Not Active
[6]
  IC50: Not Active
[7]
  IC50: Not Active
[8]
  IC50: Not Active
  Ki: Not Active

## [Cl-].[Cl-].[Zn+2] [ZINC CHLORIDE]
[1]
  IC50: Not Active
[2]
  IC50: Not Active
[3]
  IC50: Not Active
[4]
  IC50: Not Active
[5]
  IC50: Not Active
[6]
  IC50: Not Active
[7]
  IC50: Not Active
[8]
  IC50: Not Active
  Ki: Not Active

## O=C(c1ccc(OCCN2CCCCC2)cc1)c1c(-c2ccc(O)cc2)sc2cc(O)ccc12 [RALOXIFENE]
[1]
  IC50: Not Active
[2]
  IC50: Not Active
[3]
  IC50: Not Active
[4]
  IC50: Not Active
[5]; read-out: IC50
  pIC50: 6.40
[6]
  IC50: Not Active
[7]
  IC50: Not Active
[8]
  pKi: 6.43

## CN1C(C(=O)Nc2ccccn2)=C(O)c2sccc2S1(=O)=O [TENOXICAM]
[1]
  IC50: Not Active
[2]
  IC50: Not Active
[3]
  IC50: Not Active
[4]
  IC50: Not Active
[5]
  IC50: Not Active
[6]
  IC50: Not Active
[7]
  IC50: Not Active
[8]
  IC50: Not Active
  Ki: Not Active

## CC(=O)N[C@@H]1[C@H](Oc2c3cc4cc2Oc2ccc(cc2Cl)[C@@H](O[C@@H]2O[C@@H](CO)[C@@H](O)[C@H](O)[C@@H]2NC(C)=O)[C@@H]2NC(=O)[C@H](NC(=O)[C@@H]4NC(=O)[C@H]4NC(=O)[C@@H](Cc5ccc(c(Cl)c5)O3)NC(=O)[C@H](N)c3ccc(O)c(c3)Oc3cc(O)cc4c3)c3ccc(O)c(c3)-c3c(O[C@H]4O[C@H](CO)[C@@H](O)[C@@H](O)[C@@H]4O)cc(O)cc3[C@@H](C(=O)O)NC2=O)O[C@@H](CO)[C@@H](O)[C@@H]1O
[1]
  IC50: Not Active
[2]
  IC50: Not Active
[3]
  IC50: Not Active
[4]
  IC50: Not Active
[5]
  IC50: Not Active
[6]
  IC50: Not Active
[7]
  IC50: Not Active
[8]
  IC50: Not Active
  Ki: Not Active

## COCCCOc1ccnc(C[S+]([O-])c2nc3ccccc3[nH]2)c1C (configuration not stated) [RABEPRAZOLE]
[1]
  IC50: Not Active
[2]
  IC50: Not Active
[3]
  IC50: Not Active
[4]
  IC50: Not Active
[5]
  IC50: Not Active
[6]
  IC50: Not Active
[7]
  IC50: Not Active
[8]
  IC50: Not Active
  Ki: Not Active

## CO[C@H]1/C=C/O[C@@]2(C)Oc3c(C)c(O)c4c(c3C2=O)C2=NC3(CCN(CC(C)C)CC3)NC2=C(NC(=O)/C(C)=C\C=C\[C@H](C)[C@H](O)[C@@H](C)[C@@H](O)[C@@H](C)[C@H](OC(C)=O)[C@@H]1C)C4=O [RIFABUTIN]
[1]
  IC50: Not Active
[2]
  IC50: Not Active
[3]
  IC50: Not Active
[4]
  IC50: Not Active
[5]
  IC50: Not Active
[6]
  IC50: Not Active
[7]
  IC50: Not Active
[8]
  IC50: Not Active
  Ki: Not Active

## CNC(=C[N+](=O)[O-])NCCSCc1ccc(CN(C)C)o1 [RANITIDINE]
[1]
  IC50: Not Active
[2]
  IC50: Not Active
[3]
  IC50: Not Active
[4]
  IC50: Not Active
[5]
  IC50: Not Active
[6]
  IC50: Not Active
[7]
  IC50: Not Active
[8]
  IC50: Not Active
  Ki: Not Active

## CC1=C(CC(=O)O)c2cc(F)ccc2/C1=C\c1ccc([S+](C)[O-])cc1 (configuration not stated)
[1]
  IC50: Not Active
[2]
  IC50: Not Active
[3]
  IC50: Not Active
[4]
  IC50: Not Active
[5]
  IC50: Not Active
[6]
  IC50: Not Active
[7]
  IC50: Not Active
[8]
  IC50: Not Active
  Ki: Not Active

## CC(C)c1nc(CN(C)C(=O)N[C@H](C(=O)N[C@@H](Cc2ccccc2)C[C@H](O)[C@H](Cc2ccccc2)NC(=O)OCc2cncs2)C(C)C)cs1 [RITONAVIR]
[1]
  IC50: Not Active
[2]
  IC50: Not Active
[3]
  IC50: Not Active
[4]
  IC50: Not Active
[5]
  IC50: Not Active
[6]
  IC50: Not Active
[7]
  IC50: Not Active
[8]
  IC50: Not Active
  Ki: Not Active
